# PubChem BioAssay (NCI)
#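 Values below derive from 48-hour exposures of cells grown in 96-well plates, with endpoints linearly interpolated between the two concentrations bracketing the appropriate inhibition level. TGI denotes the concentration required for complete inhibition of growth.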
# Legend:
# Experiment in all cases: NCI anticancer screen, dose series, 48 h
# 786-0 renal = system: 786-0 renal
# A498 renal = system: A498 renal
# A549 NSCLC = system: A549 NSCLC
# ACHN renal = system: ACHN renal
# BT-549 breast = system: BT-549 breast
# CAKI-1 renal = system: CAKI-1 renal
# CCRF-CEM leukemia = system: CCRF-CEM leukemia
# COLO 205 colon = system: COLO 205 colon
# DLD-1 colon = system: DLD-1 colon
# DMS 114 small cell lung = system: DMS 114 small cell lung
# DMS 273 small cell lung = system: DMS 273 small cell lung
# DU-145 prostate = system: DU-145 prostate
# EKVX NSCLC = system: EKVX NSCLC
# HCC-2998 colon = system: HCC-2998 colon
# HCT-116 colon = system: HCT-116 colon
# HCT-15 colon = system: HCT-15 colon
# HL-60(TB) leukemia = system: HL-60(TB) leukemia
# HOP-18 NSCLC = system: HOP-18 NSCLC
# HOP-62 NSCLC = system: HOP-62 NSCLC
# HOP-92 NSCLC = system: HOP-92 NSCLC
# HS 578T breast = system: HS 578T breast
# HT29 colon = system: HT29 colon
# IGROV1 ovarian = system: IGROV1 ovarian
# K-562 leukemia = system: K-562 leukemia
# KM12 colon = system: KM12 colon
# KM20L2 colon = system: KM20L2 colon
# LOX IMVI melanoma = system: LOX IMVI melanoma
# LXFL 529 NSCLC = system: LXFL 529 NSCLC
# M14 melanoma = system: M14 melanoma
# M19-MEL melanoma = system: M19-MEL melanoma
# MALME-3M melanoma = system: MALME-3M melanoma
# MCF7 breast = system: MCF7 breast
# MDA-MB-231 breast = system: MDA-MB-231 breast
# MDA-MB-435 = system: MDA-MB-435
# MDA-N = system: MDA-N
# MOLT-4 leukemia = system: MOLT-4 leukemia
# NCI-H226 lung = system: NCI-H226 lung
# NCI-H23 lung = system: NCI-H23 lung
# NCI-H460 lung = system: NCI-H460 lung
# NCI-H522 lung = system: NCI-H522 lung
# NCI/ADR-RES ovarian = system: NCI/ADR-RES ovarian
# OVCAR-3 ovarian = system: OVCAR-3 ovarian
# OVCAR-4 ovarian = system: OVCAR-4 ovarian
# OVCAR-5 ovarian = system: OVCAR-5 ovarian
# OVCAR-8 ovarian = system: OVCAR-8 ovarian
# PC-3 prostate = system: PC-3 prostate
# RPMI-8226 leukemia = system: RPMI-8226 leukemia
# RXF 393 renal = system: RXF 393 renal
# SF-268 CNS = system: SF-268 CNS
# SF-295 CNS = system: SF-295 CNS
# SF-539 CNS = system: SF-539 CNS
# SK-MEL-2 melanoma = system: SK-MEL-2 melanoma
# SK-MEL-28 melanoma = system: SK-MEL-28 melanoma
# SK-MEL-5 melanoma = system: SK-MEL-5 melanoma
# SK-OV-3 ovarian = system: SK-OV-3 ovarian
# SN12C renal = system: SN12C renal
# SNB-19 CNS = system: SNB-19 CNS
# SNB-75 CNS = system: SNB-75 CNS
# SNB-78 CNS = system: SNB-78 CNS
# SR leukemia = system: SR leukemia
# SW-620 colon = system: SW-620 colon
# T-47D breast = system: T-47D breast
# TK-10 renal = system: TK-10 renal
# U251 CNS = system: U251 CNS
# UACC-257 melanoma = system: UACC-257 melanoma
# UACC-62 melanoma = system: UACC-62 melanoma
# UO-31 renal = system: UO-31 renal
compound,measurement,setting,value
O=C(CCN1CCCCC1)Nc1ccc2c(c1)C(=O)c1ccc(NC(=O)CCN3CCCCC3)cc1C2=O,TGI,786-0 renal,3.8 µM
same,TGI,A498 renal,26.7 µM
same,TGI,A549 NSCLC,10.3 µM
same,TGI,ACHN renal,23.9 µM
same,TGI,BT-549 breast,27.8 µM
same,TGI,CAKI-1 renal,27.5 µM
same,TGI,CCRF-CEM leukemia,11.1 µM
same,TGI,COLO 205 colon,24 µM
same,TGI,DLD-1 colon,15 µM
same,TGI,DMS 114 small cell lung,34.7 µM
same,TGI,DMS 273 small cell lung,3.87 µM
same,TGI,DU-145 prostate,26.9 µM
same,TGI,EKVX NSCLC,30.2 µM
same,TGI,HCC-2998 colon,13.5 µM
same,TGI,HCT-116 colon,3.2 µM
same,TGI,HCT-15 colon,7.63 µM
same,TGI,HL-60(TB) leukemia,20.8 µM
same,TGI,HOP-18 NSCLC,30.7 µM
same,TGI,HOP-62 NSCLC,6.67 µM
same,TGI,HOP-92 NSCLC,29.2 µM
same,TGI,HS 578T breast,26.2 µM
same,TGI,HT29 colon,9.99 µM
same,TGI,IGROV1 ovarian,13.2 µM
same,TGI,K-562 leukemia,7.64 µM
same,TGI,KM12 colon,3.26 µM
same,TGI,KM20L2 colon,33.2 µM
same,TGI,LOX IMVI melanoma,3.43 µM
same,TGI,LXFL 529 NSCLC,4.64 µM
same,TGI,M14 melanoma,10.1 µM
same,TGI,M19-MEL melanoma,> 100 µM
same,TGI,MALME-3M melanoma,25.5 µM
same,TGI,MCF7 breast,5.91 µM
same,TGI,MDA-MB-231 breast,3.6 µM
same,TGI,MDA-MB-435,3.25 µM
same,TGI,MDA-N,3.03 µM
same,TGI,MOLT-4 leukemia,14.5 µM
same,TGI,NCI-H226 lung,29.6 µM
same,TGI,NCI-H23 lung,12.5 µM
same,TGI,NCI-H460 lung,3 µM
same,TGI,NCI-H522 lung,32.7 µM
same,TGI,NCI/ADR-RES ovarian,25.8 µM
same,TGI,OVCAR-3 ovarian,20.9 µM
same,TGI,OVCAR-4 ovarian,8.45 µM
same,TGI,OVCAR-5 ovarian,31.4 µM
same,TGI,OVCAR-8 ovarian,13.7 µM
same,TGI,PC-3 prostate,5.1 µM
same,TGI,RPMI-8226 leukemia,14.6 µM
same,TGI,RXF 393 renal,17.6 µM
same,TGI,SF-268 CNS,24.2 µM
same,TGI,SF-295 CNS,10.4 µM
same,TGI,SF-539 CNS,7.13 µM
same,TGI,SK-MEL-2 melanoma,9.92 µM
same,TGI,SK-MEL-28 melanoma,32.8 µM
same,TGI,SK-MEL-5 melanoma,10.2 µM
same,TGI,SK-OV-3 ovarian,26.4 µM
same,TGI,SN12C renal,18 µM
same,TGI,SNB-19 CNS,10.1 µM
same,TGI,SNB-75 CNS,8 µM
same,TGI,SNB-78 CNS,29.8 µM
same,TGI,SR leukemia,6.49 µM
same,TGI,SW-620 colon,4.62 µM
same,TGI,T-47D breast,32.1 µM
same,TGI,TK-10 renal,21.2 µM
same,TGI,U251 CNS,9.97 µM
same,TGI,UACC-257 melanoma,30.5 µM
same,TGI,UACC-62 melanoma,34.7 µM
same,TGI,UO-31 renal,32.8 µM
CCOC(=O)C1=C(C(=O)OCC)SC2(S1)C(C(=O)OCC)=C(C(=O)OCC)Sc1c2ssc1=O,TGI,786-0 renal,2.13 µM
same,TGI,A498 renal,12.8 µM
same,TGI,A549 NSCLC,5.38 µM
same,TGI,ACHN renal,3.11 µM
same,TGI,BT-549 breast,4.51 µM
same,TGI,CAKI-1 renal,5.15 µM
same,TGI,CCRF-CEM leukemia,2.06 µM
same,TGI,COLO 205 colon,5.15 µM
same,TGI,DU-145 prostate,2.2 µM
same,TGI,EKVX NSCLC,5.78 µM
same,TGI,HCC-2998 colon,5.89 µM
same,TGI,HCT-116 colon,2.3 µM
same,TGI,HCT-15 colon,2.72 µM
same,TGI,HL-60(TB) leukemia,1.06 µM
same,TGI,HOP-62 NSCLC,3.21 µM
same,TGI,HOP-92 NSCLC,2.81 µM
same,TGI,HS 578T breast,5.41 µM
same,TGI,HT29 colon,3.75 µM
same,TGI,IGROV1 ovarian,2.57 µM
same,TGI,K-562 leukemia,3.06 µM
same,TGI,KM12 colon,10.3 µM
same,TGI,LOX IMVI melanoma,1.42 µM
same,TGI,M14 melanoma,4.94 µM
same,TGI,MALME-3M melanoma,4.19 µM
same,TGI,MCF7 breast,3.5 µM
same,TGI,MDA-MB-231 breast,3.88 µM
same,TGI,MDA-MB-435,3.93 µM
same,TGI,MDA-N,4.36 µM
same,TGI,MOLT-4 leukemia,2.14 µM
same,TGI,NCI-H226 lung,42.2 µM
same,TGI,NCI-H23 lung,4.02 µM
same,TGI,NCI-H460 lung,21.9 µM
same,TGI,NCI-H522 lung,4.46 µM
same,TGI,NCI/ADR-RES ovarian,7.64 µM
same,TGI,OVCAR-3 ovarian,3.16 µM
same,TGI,OVCAR-4 ovarian,2.68 µM
same,TGI,OVCAR-5 ovarian,12.4 µM
same,TGI,OVCAR-8 ovarian,3.31 µM
same,TGI,PC-3 prostate,2.96 µM
same,TGI,RPMI-8226 leukemia,4.56 µM
same,TGI,RXF 393 renal,2.47 µM
same,TGI,SF-268 CNS,4.19 µM
same,TGI,SF-295 CNS,28.8 µM
same,TGI,SF-539 CNS,2.4 µM
same,TGI,SK-MEL-2 melanoma,5.5 µM
same,TGI,SK-MEL-28 melanoma,3.93 µM
same,TGI,SK-MEL-5 melanoma,5.29 µM
same,TGI,SK-OV-3 ovarian,10.9 µM
same,TGI,SN12C renal,2.48 µM
same,TGI,SNB-19 CNS,15.4 µM
same,TGI,SNB-75 CNS,3.94 µM
same,TGI,SR leukemia,> 100 µM
same,TGI,SW-620 colon,1.89 µM
same,TGI,T-47D breast,4.62 µM
same,TGI,TK-10 renal,3.16 µM
same,TGI,U251 CNS,3.95 µM
same,TGI,UACC-257 melanoma,3.1 µM
same,TGI,UACC-62 melanoma,3.68 µM
same,TGI,UO-31 renal,3.25 µM
